Values of other authors as cited in patent US20070212307A1, “Pharmaceutical Compositions Comprising an Opioid Receptor Antagonist and Methods of Using Same” (priority 2006, published 2007).

Settings: 50 mg oral dose

## O=C1CC[C@@]2(O)[C@H]3Cc4ccc(O)c5c4[C@@]2(CCN3CC2CC2)[C@H]1O5 [naltrexone]
  oral bioavailability: 10%-25%
